{"source": "patent US6632960B2", "about": "“Diaryliodonium salt catalysts made from iodotoluene and a method for preparing them” (Goldschmidt AG, priority 2002, dated 2003)", "key": {"[1]": {"experiment": "Solution stability of catalyst solutions on storage at 25° C.", "type": "physicochemical", "conditions": "Comparison 3: 40 parts catalyst in 60 parts ERL 4221E; listed as iodotoluene catalyst"}, "[2]": {"experiment": "Iodonium catalyst solubility studies: time to dissolve to a clear solution at 70° C.", "conditions": "Comparison 2: 3 parts by weight catalyst in 100 parts PC-1000 (epoxy siloxane monomer); 2.9 wt. % solution"}}, "data": [{"compound": "CCCCCCCCCCCCC(O)COc1ccc([I+]c2ccc(C)cc2)cc1", "note": "(centres unmarked) [PCX-2519, [4-(2-hydroxy-1-tetradecyloxy)-phenyl] 4-methylphenyliodonium hexafluorophosphate]", "values": [{"measurement": "Solution Stability (after 14 days @ 25° C.)", "setting": "[1]", "result": "remained stable and clear"}, {"measurement": "Time @ 70° C. (for clear solution)", "setting": "[2]", "result": "half and ½ hr."}]}]}
